{
  "source": "patent US20040132815A1",
  "about": "“Preventive/remedial agent for inflammatory disease in oral-cavity mucosa and the like” (priority 2001, published 2004)",
  "origin": "cited, not measured here",
  "settings": "compared with the disodium salt",
  "data": [
    {"compound": "CC(C)c1cc2c(cc1S(=O)(=O)[O-])[C@@]1(C)CCC[C@@](C)(C(=O)O)[C@@H]1CC2.[Na+]", "note": "[Sulfodehydroabietic acid monosodium salt]", "values": [
      {"measurement": "hygroscopicity", "result": "less hygroscopic"},
      {"measurement": "stability", "result": "more stable"}
    ]}
  ]
}
